Consider 19 molecules from patent publication US10010584B2, “Treatment of depressive disorders” (Blanchette Rockefeller Neuroscience Institute, priority 2004, dated 2018).

Where two headings read alike, the source gives them in different places.

One data set relates to Adult Wistar rats. Put plainly: Open-space-swimming test. It counts as in vivo, rat. As to conditions: for mobility (distance moved) / immobility compared with control group: 10 mg/kg×3 per day, 23, 2 and 1 h before trial sessions, saline control; for percentages of decreases in the distance moved on the third day (using the decrease of control groups as 100%): 10 mg/kg×3 per day i.p., n=8. As to the method: Adult Wistar rats (180-200 g) were housed in a temperature-controlled (20-24° C.) room for at least a week prior to experimentation, allowed free access to food and water, and kept on a 12-h light/dark cycle. They were randomly assigned to different groups (eight each) and were moved to the test room in their home cages at least 1 h before trials. Rats were individually placed into a round pool with a diameter of 152 cm and height of 60 cm and was filled with 40 cm H2O (22±1° C.). The room and pool are part of the started set-up used for spatial water maze task. (Sun et al. (2002) J. Pharmacol. Exp. Ther. 300: 408-416). The tests for different drug treatment and control groups were in a counterbalanced order. No escape was available in these trials. Rats were free to swim (or not to swim) for 15 min and then removed and returned to their home cage after drying. Observers were obscured from sight of the rats during the trials, but were able to observe the animals' behaviors on a video screen monitor during trials. The same procedure (15 min session per day) was repeated 24 h later and continued for 3 additional days. Drugs were dissolved in a saline solution for test groups and saline alone was used in the control groups. Imipramine (10 mg/kg×3 day, i.p.), iproniazid (10 mg/kg×3 per day, i.p.), mianserin (10 mg/kg×3 per day, i.p.), alaproclate (10 mg/kg×3 per day), or saline were administered between the swimming trial sessions at 23, 2, and 1 h before the second, third, and fourth trial sessions, respectively. The rationale for the three doses before test trials is the more consistent predictive effects than those of a single dose (Porsolt et al. (1977) Nature 266: 730-730-732; Porsolt et al. (1978) Eur J. Pharmacol. 47: 379-391; Poncelet et al, (1986) Psychopharmacology 90: 139-141). The swimming/drifting path was recorded with a video-tracking system that was also used for the spatial water maze task in other studies (Sun et al., 2002; Sun and Alkon, 2002a). The system tracks the animal's position by recording sequential x/y-coordinates of trigger events (video signal above track level) and calculating the distance, in the pool (sample period: 0.055 s) and adds the distance at pre-set intervals (15 min) during each trial. The tracking system, however, neither distinguishes nor determines the duration of any period of mobility or immobility. To evaluate whether the distance moved, as recorded by the tracking system, reflects the duration of active swimming, the investigator(s) also recorded the duration of active swimming on-line via the video screen monitor for a direct comparison of the two parameters.
Depressive behavior in rats was induced by placing the animals in an open-space swimming apparatus, as described herein, for 15 minutes per trial per day. The animals were subjected to three trials over the course of three days. The animals were divided into three groups: control rats (8); phenylalanine rats (10); and imipramine rats (10). The control rats received a single i.v. dose of saline in the tail vein, 3.5 hours before the second trial. […] Rats in the imipramine group received 3 i.p. doses (10 mg/kg) at 23, 2 and 1 hour before the first, second and third trials, respectively.
Depressive behavior in rats was induced by placing the animals in an open-space swimming apparatus, as described herein, for 15 minutes per trial per day. The animals were subjected to three trials over the course of three days. […] The control rats received a single i.v. dose of saline in the tail vein, 3.5 hours before the second trial.

Data set [1] deals with PKC. As to conditions: cited from earlier work.
A further data set relates to humans. As to conditions: cited from earlier work.
The next data set addresses T1, PKCε (Homo sapiens, UniProt Q02156).
T1 sequence (Q02156 1-737): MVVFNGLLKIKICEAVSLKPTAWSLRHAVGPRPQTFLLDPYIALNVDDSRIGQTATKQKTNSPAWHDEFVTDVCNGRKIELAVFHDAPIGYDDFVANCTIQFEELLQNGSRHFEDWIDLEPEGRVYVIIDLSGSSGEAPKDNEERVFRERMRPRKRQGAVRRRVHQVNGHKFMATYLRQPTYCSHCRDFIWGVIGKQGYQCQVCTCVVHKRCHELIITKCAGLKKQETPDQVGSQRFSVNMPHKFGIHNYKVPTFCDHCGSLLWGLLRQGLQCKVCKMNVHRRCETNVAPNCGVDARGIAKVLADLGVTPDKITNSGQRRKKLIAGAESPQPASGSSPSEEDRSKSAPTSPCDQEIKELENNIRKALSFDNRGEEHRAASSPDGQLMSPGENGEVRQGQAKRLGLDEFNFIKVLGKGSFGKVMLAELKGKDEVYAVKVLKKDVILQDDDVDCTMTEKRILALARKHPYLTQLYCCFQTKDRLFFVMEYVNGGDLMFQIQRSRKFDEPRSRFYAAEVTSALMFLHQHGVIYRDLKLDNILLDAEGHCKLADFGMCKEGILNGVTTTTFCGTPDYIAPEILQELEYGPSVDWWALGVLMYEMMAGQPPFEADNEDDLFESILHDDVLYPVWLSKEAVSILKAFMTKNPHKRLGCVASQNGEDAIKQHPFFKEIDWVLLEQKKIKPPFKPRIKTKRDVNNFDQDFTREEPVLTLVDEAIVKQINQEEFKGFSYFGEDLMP
As to conditions: cited from earlier work.

Data set [2] concerns murine leukemias and solid tumors. As to conditions: cited from earlier work.
Data set [3] concerns PKC. As to conditions: K562 cells; cited from earlier work.
Data set [4] concerns cyclin dependent kinase 2 (Cdk2). As to conditions: at 5 ng/ml; cited from earlier work.
Data set [5] deals with PKC. As to conditions: competes with [3H]phorbol dibutyrate; read-out: Ki for binding; cited from earlier work.
The test system of data set [6] is squamous cell carcinoma and melanoma. As to conditions: used topically; cited from earlier work.
Another data set concerns NCI 60 cell line screen. As to conditions: cited from earlier work.
In the next data set the target is PKCa (Homo sapiens, UniProt P17252). As to conditions: cited from earlier work.
The test system of data set [7] is PKC. As to conditions: cited from earlier work. This is another data set of the same source.
The test system of another data set is rats. As to conditions: forced swimming test, 15 mg/kg×3 per day i.p., n=5; cited from earlier work.
In the next data set the target is protein kinase C. As to conditions: (−)-enantiomer; cited from earlier work.
The conditions of data set [8]: (−)-enantiomer; cited from earlier work.
[9] abbreviates: Examples 7-13, present tense, no dose, no data.

`CC(N)C(=O)OC(C)(C)Cc1ccc(Cl)cc1` (stereo not drawn) [Alaproclate, alaproclate]: the “duration of active swimming compared with control group” value in the data set with Adult Wistar rats (rats, 10 mg/kg×3 per day) is given as “significantly longer”. For the same molecule, the “mobility (distance moved) / immobility compared with control group” value with Adult Wistar rats (rats) is recorded as “effective in reducing the immobility”.

For `CCCCCCCC(=O)O[C@H]1/C(=C/C(=O)OC)C[C@H]2C[C@H](CO)OC(=O)C[C@H](O)C[C@@H]3CCC[C@H](C[C@@H]4CCO[C@H](/C=C/C(C)(C)[C@]1(O)O2)O4)O3` [Analog 1], in the data set with PKC [1], the “affinity for PKC (in words)” value is given as “highest affinity for PKC” and the “potency relative to bryostatin-1” value is “about 100 times”. Further, the Ki on PKC [1] (read-out: PKC Affin) is 0.25 nM.

Consider `CCC/C=C/C=C/C(=O)O[C@H]1/C(=C/C(=O)OC)C[C@H]2C[C@H]([C@@H](C)O)OC(=O)C[C@H](O)C[C@@H]3C[C@H](OC(C)=O)C(C)(C)[C@](O)(C[C@@H]4C/C(=C/C(=O)OC)C[C@H](/C=C/C(C)(C)[C@]1(O)O2)O4)O3` [Bryostatin 1, bryostatin-1], for which, in the data set on Adult Wistar rats (rats, single i.v. dose 80 μg/kg), the “difference from imipramine group (10 mg/kg i.p. ×3)” value is reported as “No significant difference”. Moreover, in the data set with Adult Wistar rats (rats, single i.v. dose 80 μg/kg in the tail vein 3.5 hours before the second trial), the “immobility compared with control group and imipramine group” value is recorded as “effective in reducing immobility”. The main adverse reaction entry in the data set on humans is “myalgia”.

For the molecule `CCCCCC1CC1CC1CC1CCCCCCCC(=O)O` (stereo not drawn) [DCP-LA, 2-[(2-pentylcyclopropyl)methyl]cyclopropaneoctanoic acid], the “concentration of maximal effect” value on PKCε (activation of PKCε) is listed as 100 nM. Moreover, the “isoform selectivity of PKC activation” value at PKCε is “selectively activates PKCε”.

As for `N[C@@H](Cc1ccccc1)C(=O)O` [Effector 2, phenylalanine], the “immobility compared with control group and imipramine group” value in the data set with Adult Wistar rats (rats, single i.v. dose in the tail vein 3.5 hours before the second trial) was “effective in reducing the immobility”.

On to `N[C@@H](Cc1ccc(O)cc1)C(=O)O` [Effector 4, 4-hydroxy phenylalanine], for which the “immobility compared with control group and imipramine group” value in the data set on Adult Wistar rats (setting [9]) is “effective in reducing immobility”.

Regarding `N[C@@H](Cc1ccc(F)cc1)C(=O)O` [Effector 5, 4-fluoro phenylalanine], in the data set with Adult Wistar rats (setting [9]), the “immobility compared with control group and imipramine group” value is “effective in reducing immobility”.

Take `c1c[nH]cn1` [Effector 14, Imidazole]: the “immobility compared with control group and imipramine group” value with Adult Wistar rats (setting [9]) is “effective in reducing immobility”.

For the molecule `C=C(C)[C@]12C[C@@H](COC(=O)c3ccccc3)[C@@]34OC5(O[C@@H]1[C@@H]3C1O[C@]1(CO)[C@@H](O)[C@@]1(O)[C@H]4[C@@H](C(C)CCCCCC[C@@H]5O)C(C)[C@@H]1OC(=O)c1ccccc1)O2` (stereo partly drawn) [Gnidimacrin], the “concentrations of potent antitumor activity” value in data set [2] is 0.1 to 1 nM. For the same molecule, in the data set on PKC [3], the “concentration at which it acts as a PKC activator” value is “≈ 3 nM”. In addition, the “inhibition of Cdk2” value in [4] was 100%.

With `CC1=C[C@]23C(=O)[C@@H](C=C(COC(=O)c4ccccc4)[C@@H](O)[C@]2(O)[C@H]1OC(=O)c1ccccc1)[C@H]1[C@@H](C[C@H]3C)C1(C)C` [Ingenol 3,20-dibenzoate], the Ki at PKC [5] was 240 nM.

For the molecule `C/C=C(/C)C(=O)O[C@H]1C(C)=C[C@]23C(=O)[C@@H](C=C(CO)[C@@H](O)[C@]12O)[C@H]1[C@@H](C[C@H]3C)C1(C)C` [Ingenol-3-angelate], the antitumor activity entry in data set [6] is “possesses antitumor activity”.

With `CC1=CC[C@H](C)C(C)(C)[C@@H]1/C=C/C(C)=C/CC[C@@]1(CO)[C@H](CCCO)/C(=C(/C)C=O)CC[C@]1(C)O` [Iripallidal], the “GI50 (concentration required to inhibit growth by 50%)” value in the data set on NCI 60 cell line screen is given as “from micromolar to nanomolar range”. Besides, at PKCa, the Ki was 75.6 nM.

On to `CCCCCCCNS(=O)(=O)c1cccc2c(Cl)cccc12` [SC-10, N-(n-heptyl)-5-chloro-1-naphthalenesulfonamide], for which the “activation of PKC” value with PKC [7] was “activates PKC in a calcium-dependent manner”.

With `CCCCCCCC(=O)OC1C(=CC(=O)OC)CC2CC(CO)OC(=O)CC(O)CCOC(C(C)(C)C)CC3CCOC(C=CC(C)(C)C1(O)O2)O3` (stereo not drawn) [bryolog 3], the Ki at PKC [1] (A-ring bryologs, read-out: affinity for PKC) is 6.5 nM.

In the case of `CN(C)CCCN1c2ccccc2CCc2ccccc21` [imipramine], the “percentages of decreases in the distance moved on the third day (using the decrease of control groups as 100%)” value with Adult Wistar rats (rats) came to 49.8±7.6%. Also, in the data set on rats, the “immobility % as control” value is reported as 61.5±6.5%.

For `CC(C)NNC(=O)c1ccncc1` [iproniazid], in the data set on Adult Wistar rats (rats), the “percentages of decreases in the distance moved on the third day (using the decrease of control groups as 100%)” value is 44.0±7.7%; the “mobility (distance moved) / immobility compared with control group” value is “appeared more effective at the dose given than mianserin and imipramine”. Moreover, in the data set on rats, the “immobility % as control” value is reported as 87.6±7.3%.

On to `CN1CCN2c3ccccc3Cc3ccccc3C2C1` (stereo not drawn) [mianserin], for which the “percentages of decreases in the distance moved on the third day (using the decrease of control groups as 100%)” value in the data set on Adult Wistar rats (rats) is 33.3±6.3%. The “immobility % as control” value in the data set on rats is reported as 66.5±7.0%.

On to `CCCCCCCCc1ccc2c3c(c[nH]c13)C[C@@H](CO)NC(=O)[C@H](C(C)C)N2C` [octylindolactam V, Octylindolactam V], for which, at protein kinase C, the concentration giving a half-maximal response (EC50) is 29 nM. The metabolic stability result in data set [8] is listed as “greater metabolic stability”.

B1: FGF-18: peptide consisting of 207 amino acids, member of the fibroblast growth factor family (protein, UniProt O76093 28-207, looked up)
Fibroblast growth factor 18: EENVDFRIHVENQTRARDDVSRKQLRLYQLYSRTSGKHIQVLGRRISARGEDGDKYAQLLVETDTFGSQVRIKGKETEFYLCMNRKGKLVGKPDGTSKECVFIEKVLENNYTALMSAKYSGWYVGFTKKGRPRKGPKTRENQQDVHFMKRYPKGQPELQKPFKYTTVTKRSRRIRPTHPA
B1: the “immobility compared with control group and imipramine group” value in the data set on Adult Wistar rats (setting [9]) is “effective in reducing immobility”.

What is called EC50 is the concentration giving half of the maximal effect.
